Laboratory results reported in ChEMBL document CHEMBL3797166, “Identification of N-phenyl-2-(N-phenylphenylsulfonamido)acetamides as new RORγ inverse agonists: Virtual screening, structure-based optimization, and biological evaluation” (Eur J Med Chem, 2016).
Calls of active or inactive are those of the source. The rule behind the calls is not given here.

Columns and labels:
[1] = target: T1, Nuclear receptor ROR-gamma (Homo sapiens, UniProt P51449); assay: Displacement of N-terminal biotinylated SRC1-4 coactivator peptide from N-terminal His6-fused human RORgamma-LBD (262 to 507 residues) expressed in Escherichia coli BL21 (DE3) by luminescence-based Alphascreen assay
T1 sequence (P51449 whole entry): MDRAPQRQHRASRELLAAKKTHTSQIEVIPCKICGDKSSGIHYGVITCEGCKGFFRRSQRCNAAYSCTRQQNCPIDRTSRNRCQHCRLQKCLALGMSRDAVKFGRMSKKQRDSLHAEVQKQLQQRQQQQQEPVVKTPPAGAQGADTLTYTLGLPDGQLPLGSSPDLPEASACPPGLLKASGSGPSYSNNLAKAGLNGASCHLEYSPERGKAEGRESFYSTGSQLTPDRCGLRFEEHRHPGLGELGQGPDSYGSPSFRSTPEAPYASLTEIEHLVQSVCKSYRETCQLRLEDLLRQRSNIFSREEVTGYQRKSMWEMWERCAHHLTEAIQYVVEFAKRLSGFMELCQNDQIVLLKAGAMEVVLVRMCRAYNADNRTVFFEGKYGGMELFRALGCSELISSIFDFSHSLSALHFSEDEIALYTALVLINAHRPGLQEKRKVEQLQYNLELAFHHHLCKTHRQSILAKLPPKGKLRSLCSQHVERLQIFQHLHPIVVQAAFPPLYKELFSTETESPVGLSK

[2] = target: T1, Nuclear receptor ROR-gamma; assay: Inhibition of Gal4-RORgamma-LBD (180 to 507 residues) (unknown origin) expressed in HEK293T cells after 24 hrs by dual-luciferase reporter assay; type: cell-based, HEK-293T
[3] = target: T2, Nuclear receptor ROR-gamma (Homo sapiens) (UniProt P51449)
T2 sequence (whole entry): T1 sequence (P51449 whole entry)
Description: Binding affinity to N-terminal His6-fused human RORgamma-LBD (262 to 507 residues) expressed in Escherichia coli BL21 (DE3) assessed as inhibition of thermal stability activity at 200 uM incubated for 30 mins by RT-PCR analysis

SMILES | IC50 ([1]; read-out: IC50) | IC50 ([2]; read-out: IC50) | ΔTm [3] | IC50 [1] | IC50 ([2]; hek-293t) | deltaTm [3]
Cc1ccc(S(=O)(=O)N(CC(=O)Nc2nc(C)cs2)c2cccc(C(F)(F)F)c2)cc1 | 15.8 µM | 3.65 µM | 0.8 °C |  |  | 
COC(=O)c1ccccc1NC(=O)CN(c1cccc(C(F)(F)F)c1)S(=O)(=O)c1ccc(C)cc1 |  | 1.39 µM | 2.1 °C |  |  | 
Cc1ccc(S(=O)(=O)N(CC(=O)Nc2ccc(C#N)cc2)c2ccc(C(F)(F)F)cc2)cc1 | 1.07 µM | 0.62 µM | 3.05 °C |  |  | 
Cc1ccc(S(=O)(=O)N(CC(=O)NC2CCCCC2)c2cccc(C(F)(F)F)c2)cc1 |  | 1.03 µM | 0.1 °C | Not Active |  | 
Cc1ccc(S(=O)(=O)N(CC(=O)NCc2ccc(O)cc2)c2cccc(C(F)(F)F)c2)cc1 | 14.7 µM | 22.1 µM | 1 °C |  |  | 
Cc1ccc(S(=O)(=O)N(CC(=O)Nc2cccc(C(=O)O)c2)c2cccc(C(F)(F)F)c2)cc1 |  |  |  |  | Not Active | 
Cc1ccc(CNC(=O)CN(c2cccc(C(F)(F)F)c2)S(=O)(=O)c2ccc(C)cc2)cc1 |  | 27.2 µM | 1 °C | Not Active |  | 
COc1ccc(NC(=O)CN(c2cccc(C(F)(F)F)c2)S(=O)(=O)c2ccc(C)cc2)cc1OC | 12.8 µM | 2.44 µM | 1.3 °C |  |  | 
Cc1ccc(S(=O)(=O)N(CC(=O)Nc2ccc(C#N)cc2)c2ccc(C#N)cc2)cc1 | 65.3 µM | 1.31 µM | 1.71 °C |  |  | 
Cc1ccc(S(=O)(=O)N(CC(=O)Nc2ccc(C#N)cc2)c2cccc(C(F)(F)F)c2)cc1 | 0.77 µM | 0.9 µM | 3.5 °C |  |  | 
Cc1ccc(S(=O)(=O)N(CC(=O)Nc2ccc(OC(F)(F)F)cc2)c2cccc(C(F)(F)F)c2)cc1 |  |  |  | Not Active | Not Active | 
Cc1ccc(S(=O)(=O)N(CC(=O)NCc2ccc(F)cc2)c2cccc(C(F)(F)F)c2)cc1 | 13.1 µM | 7.51 µM | 1.07 °C |  |  | 
Cc1ccc(S(=O)(=O)N(CC(=O)NCc2ccncc2)c2cccc(C(F)(F)F)c2)cc1 | 15.2 µM | 8.28 µM | 2.2 °C |  |  | 
Cc1ccc(S(=O)(=O)N(CC(=O)Nc2ccc(C(O)(C(F)(F)F)C(F)(F)F)cc2)c2cccc(C(F)(F)F)c2)cc1 | 112 µM |  | 0.5 °C |  |  | 
Cc1ccc(N(CC(=O)Nc2ccc(C#N)cc2)S(=O)(=O)Cc2ccc(F)cc2)cc1 | 25.8 µM | 1.78 µM | 2.5 °C |  |  | 
Cc1ccc(S(=O)(=O)N(CC(=O)Nc2ccc(OCc3ccccc3)cc2)c2cccc(C(F)(F)F)c2)cc1 | 93.9 µM |  |  |  | Not Active | 

SMILES | IC50 ([1]; read-out: IC50) | IC50 ([2]; read-out: IC50) | ΔTm [3] | IC50 [1] | IC50 ([2]; hek-293t) | deltaTm [3]
Cc1ccc(N(CC(=O)Nc2ccc(C#N)cc2)S(=O)(=O)c2ccc(F)cc2)cc1 | 10.3 µM | 1.45 µM | 2.8 °C |  |  | 
Cc1ccc(S(=O)(=O)N(CC(=O)Nc2ccc(F)cc2)c2cccc(C(F)(F)F)c2)cc1 | 3.99 µM | 3.37 µM | 2.1 °C |  |  | 
CC(=O)N1CCN(C(=O)CN(c2cccc(C(F)(F)F)c2)S(=O)(=O)c2ccc(C)cc2)CC1 | 175 µM | 10.4 µM |  |  |  | inactive
CCCCCCNC(=O)CN(c1cccc(C(F)(F)F)c1)S(=O)(=O)c1ccc(C)cc1 |  |  |  | Not Active | Not Active | 
Cc1ccc(S(=O)(=O)N(CC(=O)Nc2ccc(O)cc2)c2cccc(C(F)(F)F)c2)cc1 | 13.6 µM | 8.34 µM | 1.6 °C |  |  | 
Cc1ccc(S(=O)(=O)N(CC(=O)Nc2ccc(C#N)cc2)c2ccc(Cl)c(Cl)c2)cc1 | 0.22 µM | 0.63 µM | 3.5 °C |  |  | 
COC(=O)c1ccc(NC(=O)CN(c2cccc(C(F)(F)F)c2)S(=O)(=O)c2ccc(C)cc2)cc1 | 11.8 µM | 3.98 µM | 1.15 °C |  |  | 
CC(=O)c1ccc(NC(=O)CN(c2cccc(C(F)(F)F)c2)S(=O)(=O)c2ccc(C)cc2)cc1 | 11.3 µM | 0.59 µM | 1.25 °C |  |  | 
Cc1ccc(S(=O)(=O)N(CC(=O)Nc2ccc(F)cc2F)c2cccc(C(F)(F)F)c2)cc1 | 62.6 µM | 4.54 µM | 1.8 °C |  |  | 
Cc1ccc(S(=O)(=O)N(CC(=O)Nc2ccc(C#N)cc2)c2ccc(F)cc2)cc1 | 36.1 µM | 0.91 µM | 2.15 °C |  |  | 
Cc1ccc(S(=O)(=O)N(CC(=O)O)c2cccc(C(F)(F)F)c2)cc1 | 93.3 µM | 152 µM |  |  |  | inactive
Cc1ccc(N(CC(=O)Nc2ccc(C#N)cc2)S(=O)(=O)Cc2ccccc2)cc1 | 36.8 µM | 0.63 µM | 1.71 °C |  |  | 
COC(=O)c1ccc(CNC(=O)CN(c2cccc(C(F)(F)F)c2)S(=O)(=O)c2ccc(C)cc2)cc1 | 67.1 µM |  |  |  | Not Active | 
Cc1ccc(S(=O)(=O)N(CC(=O)Nc2ccc(C(N)=O)cc2)c2cccc(C(F)(F)F)c2)cc1 | 35.1 µM | 0.42 µM | 1.9 °C |  |  | 
COC(=O)c1cccc(NC(=O)CN(c2cccc(C(F)(F)F)c2)S(=O)(=O)c2ccc(C)cc2)c1 |  | 6.06 µM |  | Not Active |  | 
